Assay results published in US20100144733A1, “Compounds, compositions and methods comprising heteroaromatic derivatives” (Institute for OneWorld Health, priority 2008, published 2010).

Legend:
CHO-CFTR cell line = target: T1, CHO-CFTR cell line (Homo sapiens, UniProt P13569); assay: CHO-CFTR assay (FLIPR assay, same conditions as the T84 assay); type: cell-based; conditions: imidazole and triazole-containing compounds
T1 construct: expressed in transfected cells; host or cells: CHO (CHO-CFTR cell line)
T1 sequence (P13569 whole entry): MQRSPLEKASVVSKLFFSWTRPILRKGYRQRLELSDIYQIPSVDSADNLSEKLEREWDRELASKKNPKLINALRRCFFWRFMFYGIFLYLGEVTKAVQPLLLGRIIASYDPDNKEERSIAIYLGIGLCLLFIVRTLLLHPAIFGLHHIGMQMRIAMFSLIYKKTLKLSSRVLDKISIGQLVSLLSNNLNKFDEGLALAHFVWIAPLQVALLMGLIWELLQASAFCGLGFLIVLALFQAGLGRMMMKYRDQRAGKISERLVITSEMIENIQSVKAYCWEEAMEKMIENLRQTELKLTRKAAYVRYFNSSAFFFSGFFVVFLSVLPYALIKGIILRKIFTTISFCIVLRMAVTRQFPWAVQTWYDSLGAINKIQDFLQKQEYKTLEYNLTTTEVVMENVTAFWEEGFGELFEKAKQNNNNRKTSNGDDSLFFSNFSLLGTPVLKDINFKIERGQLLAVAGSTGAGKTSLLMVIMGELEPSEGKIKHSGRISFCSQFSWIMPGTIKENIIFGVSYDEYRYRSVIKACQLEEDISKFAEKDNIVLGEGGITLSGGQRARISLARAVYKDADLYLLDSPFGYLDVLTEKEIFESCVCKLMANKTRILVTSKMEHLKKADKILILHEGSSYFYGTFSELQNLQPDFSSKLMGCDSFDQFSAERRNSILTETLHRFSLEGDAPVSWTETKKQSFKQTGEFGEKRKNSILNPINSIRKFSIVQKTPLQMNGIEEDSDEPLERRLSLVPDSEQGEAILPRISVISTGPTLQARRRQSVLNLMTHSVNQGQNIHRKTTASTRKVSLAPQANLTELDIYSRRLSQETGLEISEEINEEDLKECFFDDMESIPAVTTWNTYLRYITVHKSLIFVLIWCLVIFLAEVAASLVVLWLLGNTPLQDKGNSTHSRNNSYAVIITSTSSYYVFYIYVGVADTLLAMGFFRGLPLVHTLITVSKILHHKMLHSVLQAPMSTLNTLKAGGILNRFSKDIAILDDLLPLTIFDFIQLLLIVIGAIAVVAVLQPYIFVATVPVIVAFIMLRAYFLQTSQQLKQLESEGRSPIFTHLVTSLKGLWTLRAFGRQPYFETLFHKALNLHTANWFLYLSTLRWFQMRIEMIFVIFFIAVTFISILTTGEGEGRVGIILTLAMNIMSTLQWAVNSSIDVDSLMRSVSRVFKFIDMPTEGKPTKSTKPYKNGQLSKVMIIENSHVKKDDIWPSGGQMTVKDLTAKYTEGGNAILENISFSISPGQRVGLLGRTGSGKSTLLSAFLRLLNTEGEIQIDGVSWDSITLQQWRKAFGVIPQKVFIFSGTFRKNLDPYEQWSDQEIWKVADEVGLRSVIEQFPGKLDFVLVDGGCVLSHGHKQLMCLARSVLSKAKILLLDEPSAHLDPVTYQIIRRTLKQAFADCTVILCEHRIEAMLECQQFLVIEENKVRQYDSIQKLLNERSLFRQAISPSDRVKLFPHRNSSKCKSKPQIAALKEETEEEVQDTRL

CFTR = target: T2, CFTR (Homo sapiens, UniProt P13569); assay: T84 assay (FLIPR membrane potential dye, forskolin/IBMX-stimulated CFTR channel activity); type: cell-based; conditions: imidazole and triazole-containing compounds (Tables 13, 14, 14′), read-out: IC50 (μM) (T84 assay)
T2 construct: endogenous in cells; host or cells: T84 human colonic cells (ECACC)
T2 sequence (P13569 whole entry): as above
Summary of the method: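 Fluorescence from a membrane potential dye in T84 monolayers (HBSS with 10 mM Hepes) is followed each second for 150 s. Cells are exposed to test compound during the 45 min dye loading, then challenged with forskolin (10 μM) and IBMX (100 μM) to open CFTR. Inhibitors suppress the depolarization-driven fluorescence increase.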

SMILES: CC(C)(C)CCN(Cc1ccccc1)C(=O)c1ncn(-c2cc(Cl)c(O)c(Cl)c2)n1 [60i, N-Benzyl-1-(3,5-dichloro-4-hydroxyphenyl)-N-(3,3-dimethylbutyl)-1H-1,2,4-triazole-3-carboxamide]
- IC50 (CHO-CFTR cell line): 5.45 µM
- IC50 (CFTR): 16.2 µM

SMILES: CN(C)c1ccc(Oc2ccc(CNC(=O)c3ncn(-c4cc(Cl)c(O)c(Cl)c4)n3)cc2)cc1 [63i, 1-(3,5-dichloro-4-hydroxyphenyl)-N-(4-(4-(dimethylamino)phenoxy)benzyl)-1H-1,2,4-triazole-3-carboxamide]
- IC50 (CHO-CFTR cell line): 6.72 µM
- IC50 (CFTR): 3.02 µM

SMILES: O=C(NCc1ccc(Oc2cc(F)c(F)c(F)c2)cc1)c1ncn(-c2cc(Cl)c(O)c(Cl)c2)n1 [65i, 1-(3,5-dichloro-4-hydroxyphenyl)-N-(4-(3,4,5-trifluorophenoxy)benzyl)-1H-1,2,4-triazole-3-carboxamide]
- IC50 (CHO-CFTR cell line): 0.86 µM
- IC50 (CFTR): 5.83 µM

SMILES: O=C(NCc1ccc(Oc2ccc(OC(F)(F)F)cc2)cc1)c1ncn(-c2cc(Cl)c(O)c(Cl)c2)n1 [66i, 1-(3,5-dichloro-4-hydroxyphenyl)-N-(4-(4-(trifluoromethoxy)phenoxy)benzyl)-1H-1,2,4-triazole-3-carboxamide]
- IC50 (CHO-CFTR cell line): 11.3 µM
- IC50 (CFTR): 3.2 µM

SMILES: O=C(NCc1ccc(Oc2ccc(F)c(C(F)(F)F)c2)cc1)c1ncn(-c2cc(Cl)c(O)c(Cl)c2)n1 [67i, 1-(3,5-dichloro-4-hydroxyphenyl)-N-(4-(4-fluoro-3-(trifluoromethyl)phenoxy)benzyl)-1H-1,2,4-triazole-3-carboxamide]
- IC50 (CHO-CFTR cell line): 14.7 µM
- IC50 (CFTR): 6.4 µM

SMILES: CC(C)(C)c1ccc(Oc2ccc(CNC(=O)c3ncn(-c4cc(Cl)c(O)c(Cl)c4)n3)cc2)cc1 [68i, N-(4-(4-tert-butylphenoxy)benzyl)-1-(3,5-dichloro-4-hydroxyphenyl)-1H-1,2,4-triazole-3-carboxamide]
- IC50 (CHO-CFTR cell line): 19.1 µM
- IC50 (CFTR): 5.34 µM

SMILES: O=C(NCc1ccc(Oc2cccc(N3CCCC3)c2)cc1)c1ncn(-c2cc(Cl)c(O)c(Cl)c2)n1 [69i, 1-(3,5-dichloro-4-hydroxyphenyl)-N-(4-(3-(pyrrolidin-1-yl)phenoxy)benzyl)-1H-1,2,4-triazole-3-carboxamide]
- IC50 (CHO-CFTR cell line): 5.99 µM
- IC50 (CFTR): 4.3 µM

SMILES: O=C(NCc1ccc(Oc2ccc(Cl)c(C(F)(F)F)c2)cc1)c1ncn(-c2cc(Cl)c(O)c(Cl)c2)n1 [70i, N-(4-(4-chloro-3-(trifluoromethyl)phenoxy)benzyl)-1-(3,5-dichloro-4-hydroxyphenyl)-1H-1,2,4-triazole-3-carboxamide]
- IC50 (CHO-CFTR cell line): 19.4 µM
- IC50 (CFTR): 4.72 µM

SMILES: O=C(NCc1ccc(Oc2ccc(OCc3ccccc3)c(F)c2)cc1)c1ncn(-c2cc(Cl)c(O)c(Cl)c2)n1 [71i, N-(4-(4-(benzyloxy)-3-fluorophenoxy)benzyl)-1-(3,5-dichloro-4-hydroxyphenyl)-1H-1,2,4-triazole-3-carboxamide]
- IC50 (CHO-CFTR cell line): 31 µM
- IC50 (CFTR): 8.06 µM

SMILES: O=C(NCc1ccc(Oc2ccc(OCc3ccccc3)c(Cl)c2)cc1)c1ncn(-c2cc(Cl)c(O)c(Cl)c2)n1 [72i, N-(4-(4-(benzyloxy)-3-chlorophenoxy)benzyl)-1-(3,5-dichloro-4-hydroxyphenyl)-1H-1,2,4-triazole-3-carboxamide]
- IC50 (CHO-CFTR cell line): 12.3 µM
- IC50 (CFTR): 7.6 µM

SMILES: O=C(NCc1ccc(Oc2cc(Cl)c(OCc3ccccc3)c(Cl)c2)cc1)c1ncn(-c2cc(Cl)c(O)c(Cl)c2)n1 [73i]
- IC50 (CHO-CFTR cell line): 17 µM
- IC50 (CFTR): 30.7 µM

SMILES: O=C(c1ncn(-c2cc(Cl)c(O)c(Cl)c2)n1)N(Cc1ccccc1)Cc1cccnc1 [75i, N-benzyl-1-(3,5-dichloro-4-hydroxyphenyl)-N-(pyridin-3-ylmethyl)-1H-1,2,4-triazole-3-carboxamide]
- IC50 (CHO-CFTR cell line): 40.1 µM
- IC50 (CFTR): 15.6 µM

SMILES: O=C(NCc1ccc(Oc2ccc(CO)cc2)cc1)c1ncn(-c2cc(Cl)c(O)c(Cl)c2)n1 [76i, 1-(3,5-dichloro-4-hydroxyphenyl)-N-(4-(4-(hydroxymethyl)phenoxy)benzyl)-1H-1,2,4-triazole-3-carboxamide]
- IC50 (CHO-CFTR cell line): 12.2 µM
- IC50 (CFTR): 11.3 µM

SMILES: CC(C)(C)CCN(Cc1cccnc1)C(=O)c1ncn(-c2cc(Cl)c(O)c(Cl)c2)n1 [78i, 1-(3,5-dichloro-4-hydroxyphenyl)-N-(3,3-dimethylbutyl)-N-(pyridin-3-ylmethyl)-1H-1,2,4-triazole-3-carboxamide]
- IC50 (CHO-CFTR cell line): 13.7 µM
- IC50 (CFTR): 11.4 µM

SMILES: O=C(c1ncn(-c2cc(Cl)c(O)c(Cl)c2)n1)N(Cc1ccccc1)Cc1ccc(Oc2ccccc2)cc1 [80i, N-benzyl-1-(3,5-dichloro-4-hydroxyphenyl)-N-(4-phenoxybenzyl)-1H-1,2,4-triazole-3-carboxamide]
- IC50 (CHO-CFTR cell line): 13.3 µM
- IC50 (CFTR): 4.4 µM

SMILES: CC(C)c1ccc(CN(Cc2ccccc2)C(=O)c2ncn(-c3cc(Cl)c(O)c(Cl)c3)n2)cc1 [81i, N-benzyl-1-(3,5-dichloro-4-hydroxyphenyl)-N-(4-isopropylbenzyl)-1H-1,2,4-triazole-3-carboxamide]
- IC50 (CHO-CFTR cell line): 16.5 µM
- IC50 (CFTR): 1.26 µM

SMILES: CC(C)(C)c1ccc(CN(Cc2ccccc2)C(=O)c2ncn(-c3cc(Cl)c(O)c(Cl)c3)n2)cc1 [82i, N-benzyl-N-(4-tert-butylbenzyl)-1-(3,5-dichloro-4-hydroxyphenyl)-1H-1,2,4-triazole-3-carboxamide]
- IC50 (CHO-CFTR cell line): 19.7 µM
- IC50 (CFTR): 1.6 µM

SMILES: O=C(c1ncn(-c2cc(Cl)c(O)c(Cl)c2)n1)N(Cc1ccccc1)Cc1ccc(Cl)c(Cl)c1 [83i, N-benzyl-1-(3,5-dichloro-4-hydroxyphenyl)-N-(3,4-dichlorobenzyl)-1H-1,2,4-triazole-3-carboxamide]
- IC50 (CHO-CFTR cell line): 14.3 µM
- IC50 (CFTR): 3.22 µM

SMILES: CCN(Cc1ccc(Oc2ccccc2)cc1)C(=O)c1ncn(-c2cc(Cl)c(O)c(Cl)c2)n1 [86i, 1-(3,5-dichloro-4-hydroxyphenyl)-N-ethyl-N-(4-phenoxybenzyl)-1H-1,2,4-triazole-3-carboxamide]
- IC50 (CHO-CFTR cell line): 28.9 µM
- IC50 (CFTR): 1.81 µM

SMILES: CCN(Cc1ccc(C(C)C)cc1)C(=O)c1ncn(-c2cc(Cl)c(O)c(Cl)c2)n1 [87i, 1-(3,5-dichloro-4-hydroxyphenyl)-N-ethyl-N-(4-isopropylbenzyl)-1H-1,2,4-triazole-3-carboxamide]
- IC50 (CHO-CFTR cell line): 20.6 µM
- IC50 (CFTR): 1.23 µM

SMILES: CCN(Cc1ccc(C(C)(C)C)cc1)C(=O)c1ncn(-c2cc(Cl)c(O)c(Cl)c2)n1 [88i, N-(4-tert-butylbenzyl)-1-(3,5-dichloro-4-hydroxyphenyl)-N-ethyl-1H-1,2,4-triazole-3-carboxamide]
- IC50 (CHO-CFTR cell line): 6.58 µM
- IC50 (CFTR): 0.75 µM

SMILES: CCN(Cc1cccc(OC(F)(F)F)c1)C(=O)c1ncn(-c2cc(Cl)c(O)c(Cl)c2)n1 [89i, 1-(3,5-dichloro-4-hydroxyphenyl)-N-ethyl-N-(3-(trifluoromethoxy)benzyl)-1H-1,2,4-triazole-3-carboxamide]
- IC50 (CHO-CFTR cell line): 24.6 µM
- IC50 (CFTR): 3.34 µM

SMILES: CCN(Cc1cccc(C(F)(F)F)c1)C(=O)c1ncn(-c2cc(Cl)c(O)c(Cl)c2)n1 [90i, 1-(3,5-dichloro-4-hydroxyphenyl)-N-ethyl-N-(3-(trifluoromethyl)benzyl)-1H-1,2,4-triazole-3-carboxamide]
- IC50 (CHO-CFTR cell line): 15.9 µM
- IC50 (CFTR): 5.98 µM

SMILES: O=C(c1ncn(-c2cc(Cl)c(O)c(Cl)c2)n1)N(Cc1ccc(Oc2ccccc2)cc1)Cc1cccnc1 [91i, 1-(3,5-dichloro-4-hydroxyphenyl)-N-(4-phenoxybenzyl)-N-(pyridin-3-ylmethyl)-1H-1,2,4-triazole-3-carboxamide]
- IC50 (CHO-CFTR cell line): 20.6 µM
- IC50 (CFTR): 2.89 µM

SMILES: CC(C)c1ccc(CN(Cc2cccnc2)C(=O)c2ncn(-c3cc(Cl)c(O)c(Cl)c3)n2)cc1 [92i, 1-(3,5-dichloro-4-hydroxyphenyl)-N-(4-isopropylbenzyl)-N-(pyridin-3-ylmethyl)-1H-1,2,4-triazole-3-carboxamide]
- IC50 (CHO-CFTR cell line): 8.57 µM
- IC50 (CFTR): 1.47 µM

SMILES: CC(C)(C)c1ccc(CN(Cc2cccnc2)C(=O)c2ncn(-c3cc(Cl)c(O)c(Cl)c3)n2)cc1 [93i, N-(4-tert-butylbenzyl)-1-(3,5-dichloro-4-hydroxyphenyl)-N-(pyridin-3-ylmethyl)-1H-1,2,4-triazole-3-carboxamide]
- IC50 (CHO-CFTR cell line): 4.67 µM
- IC50 (CFTR): 1.19 µM

SMILES: O=C(c1ncn(-c2cc(Cl)c(O)c(Cl)c2)n1)N(Cc1cccnc1)Cc1cccc(C(F)(F)F)c1 [94i, 1-(3,5-dichloro-4-hydroxyphenyl)-N-(pyridin-3-ylmethyl)-N-(3-(trifluoromethyl)benzyl)-1H-1,2,4-triazole-3-carboxamide]
- IC50 (CHO-CFTR cell line): 21.1 µM
- IC50 (CFTR): 6.95 µM

SMILES: CC(C)N(Cc1ccc(Oc2ccccc2)cc1)C(=O)c1ncn(-c2cc(Cl)c(O)c(Cl)c2)n1 [95i, 1-(3,5-dichloro-4-hydroxyphenyl)-N-isopropyl-N-(4-phenoxybenzyl)-1H-1,2,4-triazole-3-carboxamide]
- IC50 (CHO-CFTR cell line): 18.9 µM
- IC50 (CFTR): 2.63 µM

SMILES: CC(C)c1ccc(CN(C(=O)c2ncn(-c3cc(Cl)c(O)c(Cl)c3)n2)C(C)C)cc1 [96i, 1-(3,5-dichloro-4-hydroxyphenyl)-N-isopropyl-N-(4-isopropylbenzyl)-1H-1,2,4-triazole-3-carboxamide]
- IC50 (CHO-CFTR cell line): 22.1 µM
- IC50 (CFTR): 2.53 µM

SMILES: CC(C)N(Cc1ccc(C(C)(C)C)cc1)C(=O)c1ncn(-c2cc(Cl)c(O)c(Cl)c2)n1 [97i]
- IC50 (CHO-CFTR cell line): 35.5 µM
- IC50 (CFTR): 1.23 µM

SMILES: CC(C)N(Cc1ccc(Cl)c(Cl)c1)C(=O)c1ncn(-c2cc(Cl)c(O)c(Cl)c2)n1 [98i, 1-(3,5-dichloro-4-hydroxyphenyl)-N-(3,4-dichlorobenzyl)-N-isopropyl-1H-1,2,4-triazole-3-carboxamide]
- IC50 (CHO-CFTR cell line): 8.39 µM
- IC50 (CFTR): 8.13 µM

SMILES: CC(C)N(Cc1cccc(OC(F)(F)F)c1)C(=O)c1ncn(-c2cc(Cl)c(O)c(Cl)c2)n1 [99i, 1-(3,5-dichloro-4-hydroxyphenyl)-N-isopropyl-N-(3-(trifluoromethoxy)benzyl)-1H-1,2,4-triazole-3-carboxamide]
- IC50 (CHO-CFTR cell line): 12 µM
- IC50 (CFTR): 7.93 µM
